# Experimental data from patent US6740497B2, “Method and apparatus for detecting cancerous cells using molecules that change electrophoretic mobility” (The Regents of the University of California, priority 1998, dated 2004).
# Peptide text beside a SMILES is read from it. * marks the point of attachment. 5FAM = O=C1OC2(c3ccc(O)cc3Oc3cc(O)ccc32)c2ccc(C(=O)*)cc21
# Legend:
# RBL cell = experiment: Intracellular side reactions (degradation/modification) of the Fl-sPKC reporter in a microinjected RBL cell; type: cell-based, rat; details: 200 μM Pefabloc present, with or without PMA, FIGS. 2B and 2C
# Method: In the measurements illustrated by FIG. 2A-C, prior to mounting on the microscope stage for microinjection and analysis at room temperature (20°-23° C.), each cell chamber 199 was treated by addition of 10 μl of 10 mM Pefabloc (Boehringer-Mannheim, Indianapolis, Ind.) in buffer A with gentle manually pipetted mixing using a Pipetman® (Rainin, Woburn, Mass.).
# This yielded a final Pefabloc concentration of 200 μM. Pefabloc is a soluble, physiologically tolerated, inhibitor of serine proteases, a subset of intracellular enzymes that tend to degrade peptides. Pefabloc was included to minimize intracellular degradation of Fl-sPKC. […]
# In the measurements illustrated by FIGS. 2A-C, Fl-sPKC was diluted in buffer B, a physiologically compatible intracellular buffer composed of 10 mM Hepes and 140 mM KCl, at pH 7.4. […] The cells 46 that had been successfully microinjected were identified by visual observation of internal Calcium Orange epi-fluorescence through a set of TRITC filters (Chroma Technology Corp., Brattleboro, Vt.) (not shown, but included in the microscope 12) to minimize photodestruction of the fluorescein moiety on Fl-sPKC. […]
# Clearly activation of an intracellular kinase by a potent pharmacologic activator can be measured by this approach. Furthermore, both electrophoretograms in FIGS. 2B and 2C show the presence of peaks that cannot be readily identified. […]
# protein kinase C (PKC) [1] = experiment: Net intracellular PKC activity in single RBL cells: microinjected Fl-sPKC reporter, laser lysis, capillary electrophoresis, laser-induced fluorescence; type: cell-based, rat; details: RBL cell
# Method: FIGS. 2A-C and 3A-C are two sets of graphs of three stacked electrophoretograms of reporter substrate molecule separations all made under identical electrophoretic conditions on the same day. In the first embodiment, illustrated by FIGS. 2A-C and FIGS. 3A-C, rat basophilic leukemia (RBL) cells, from the tumor mast cell line RBL-2H3, were used. These cells were grown at 37° C. and 5% CO2 in Dulbecco's modified eagle medium (DMEM) supplemented with 10% fetal bovine serum, and L-glutamine ([…]). Penicillin (100 units/ml) and streptomycin (100 μg/ml) were added to the media to inhibit bacterial growth. […] The cells 46 were plated at concentrations determined empirically to produce approximately one cell per 100× field of view on the day of the measurement. […]
# In the first embodiment, the microscopy system of FIG. 9 used for cell lysis was similar to that described previously in the incorporated application entitled “Fast Controllable Laser Lysis of Cells for Analysis”. The frequency-doubled Q-switched Nd:YAG laser 18 (Minilite II, Continuum, Santa Clara, Calif.; Minilase II-20, New Wave Research, Sunnyvale, Calif.) was used to generate a single pulse (1-25 μJ, 5-ns pulse width, 532 nm) directed into a fluorescence microscope 12 (Axiovert 135, Zeiss, Thornwood, N.Y.). […]
# protein kinase C (PKC) [2] = experiment: Intracellular Fl-sPKC phosphorylation by PKC in single Xenopus laevis oocytes (PERT CE sampling, MEKC); type: cell-based
# Method: Oocytes 46′ were surgically obtained from pigmented or albino Xenopus laevis frogs and were cultured as described previously. Oocytes 46′ were microinjected by means of an injector mounted on a low power dissecting microscope (not shown) with 50 nl of reporter substrate peptide (0.5-200 μM) in buffer B, and then incubated for 30 min to permit diffusion of the peptide through the oocyte 46′. For measurements, oocytes 46′ were placed in buffer C (96 mM NaCl, 2 mM KCl, 1.8 mM CaCl2, 1 mM MgCl2, 5 mM Hepes, pH 7.6). When LPA (1-oleoyl-2-hydroxy-sn-glycero-3-phosphate, Avanti Polar Lipids, Alabaster, Ala.) was added to the oocytes 46′, fatty acid-free bovine serum albumen (5%) was used as a carrier as described previously.
# All samples from the oocytes 46′ were obtained and electrophoresed by a method referred to as piezoelectric sampling/rapid translation/capillary electrophoresis (PERT CE). The apparatus used for PERT CE is illustrated in FIGS. 8A-B. FIGS. 8A and 8B are diagrammatic depictions of the components of the apparatus used to make measurements of intracellular enzyme activity from single Xenopus laevis oocytes 46′. […] The holder is part of a complete apparatus for automatically sampling oocyte cytoplasm and rapidly subjecting this sample to electrophoresis before any substantial change in the substrate molecules can occur. This is achieved by providing a sharpened electrophoresis capillary 22 attached to a high speed translation system to plunge the capillary into the cell to capture a plug of cytoplasm. Then the capillary is automatically withdrawn from the oocyte and rapidly moved to make electrical contact with a reservoir 134 of electrophoresis buffer so that electrophoresis of the substrate molecules within the “plug” commences before any additional chemical reactions occur.
# To obtain cytoplasm, the capillary 22 was driven 60 μm into the oocyte 46′ by the piezoelectric element. […] The capillary 22 was then automatically withdrawn from the cytoplasm. […] Electrophoresis was initiated immediately. […]
# protein kinase C (PKC) [3] = experiment: Time course of intracellular Fl-sPKC phosphorylation by PKC in single NIH/3T3 cells (laser lysis, capillary electrophoresis); type: cell-based, murine; details: 100 nM PMA, 5 minute time point, room temperature, FIG. 12
side products as share of collected fluorescence (RBL cell),SMILES,"Fl-sPKC peak versus P-Fl-sPKC peak (net PKC activity) (protein kinase C (PKC) [1]; 100 nM PMA, 5 minutes, FIG. 2C)","PKC activation (peaks matching P-Fl-sPKC) (protein kinase C (PKC) [1]; 1 μM PMA for 10 minutes before microinjection of Fl-sPKC and Fl-sPKA, FIG. 11C)","collected fluorescence corresponding to P-Fl-sPKC (protein kinase C (PKC) [2]; Xenopus oocyte, 10 μM PMA for 10 minutes, ~10 μM reporter substrate, FIG. 4D)","degree of reporter substrate phosphorylation (protein kinase C (PKC) [2]; Xenopus oocyte, 10 μM PMA for three minutes, FIG. 5)","average rate of Fl-sPKC phosphorylation within oocytes (protein kinase C (PKC) [2]; Xenopus oocytes, 10 μM activator, intermediate time points, FIGS. 6A/6B)",phosphorylation level of Fl-sPKC (protein kinase C (PKC) [3])
about 50%,"CC(C)C[C@H](NC(=O)[C@H](CO)NC(=O)CNC(=O)[C@H](CCCCN)NC(=O)[C@H](CCCNC(=N)N)NC(=O)[C@H](C)NC(=O)[C@H](Cc1ccccc1)NC(=O)[C@H](CCCNC(=N)N)NC(=O)c1ccc2c(c1)C(=O)OC21c2ccc(O)cc2Oc2cc(O)ccc21)C(=O)N[C@@H](CCCNC(=N)N)C(=O)N[C@@H](CCC(N)=O)C(=O)N[C@@H](CCCCN)C(=O)N[C@@H](CC(N)=O)C(=O)N[C@H](C(=O)O)C(C)C [Fl-sPKC, Fl- Arg-Phe-Ala-Arg-Lys-Gly-Ser-Leu-Arg-Gln-Lys-Asn-Val] (5FAM-RFARKGSLRQKNV-OH)",,,,,,
,"CCCCCCCCCCCCCC(=O)O[C@@H]1[C@@H](C)[C@@]2(O)[C@@H](C=C(CO)C[C@]3(O)C(=O)C(C)=C[C@@H]23)[C@@H]2C(C)(C)[C@]12OC(C)=O [PMA, phorbol myristic acid]",nearly equal magnitude,"small, but measurable amount of PKC activation",essentially all collected fluorescence,intermediate degree of reporter substrate phosphorylation,25 ± 15 nM/s,~50%
